Source: US6608032B1, “Medicinal compositions” (Takara Shuzo Co., Ltd., priority 1999, dated 2003)

How the values were obtained:
[1] = test system: HL-60 Nu cells; test: TPA-induced intracellular peroxides in HL-60 Nu (neutrophil-like) cells; type: cell-based; conditions: 50 μl of 5 mM solution, 2 hours before TPA; 5 hours; FIG. 2
Method: HL-60 cells were added to RPMI 1640 medium (Bio Whittaker, Code. 12-702F) containing 10% fetal calf serum and 1.3% dimethyl sulfoxide (Dojindo Laboratories, Code. 346-03615) and cultured at 37° C. for 1 week in the presence of 5% CO2 to prepare cells differentiated into neutrophil-like cells (hereinafter referred to as HL-60 Nu).
Agarobiose, agarotetraose or agarohexaose obtained in Referential Example 1 was dissolved in water at a concentration of 5 mM. The solution was sterilized by filtration. HL-60 Nu cells were suspended in RPMI 1640 medium containing 10% fetal calf serum at a concentration of 2.5×10^5 cells/2.4 ml. 50 μl of one of the oligosaccharide aqueous solutions was added to a well containing the cells. The cells were cultured at 37° C. for 2 hours in the presence of 5% CO2. Then, 50 μl of a solution containing phorbol 12-myristate 13-acetate (TPA, Gibco, Code. 13139-019) at a concentration of 5 mg/ml in water was added the well. After the cells were cultured for additional 5 hours, intracellular peroxides were determined. As control groups, a group to which TPA was not added and a group to which agarobiose, agarotetraose or agarohexaose as not added were provided.
After cultivation, 10 μl of a solution containing 2′,7′-dichlorofluorescein diacetate (Sigma, Code. D6833) at a concentration of 5 mM in dimethyl sulfoxide was added to the well. The cells were cultured for additional 30 minutes. The cells were then collected by centrifugation and washed twice in phosphate buffered saline. 2′, 7′-dichlorofluorescein, which is generated in proportion to the amount of intracellular peroxides, was determined using FACScan as described in Saibo Kogaku, Bessatsu (Cell Technology, Suppl.) Jikken Protocol Series: Kassei Sanso Jikken Protocol (Experimental Protocol Series: Experimental Protocols for Active Oxigen) (1994, Shujun-sha) pp. 51-54.

[2] = test system: RAW264.7 cells; test: LPS-induced prostaglandin E2 production in RAW264.7 cells; type: cell-based; conditions: 10 μl of 5 mM solution per 500 μl well, 0.5 or 5 hours before LPS; 12 hours; FIG. 3
Method: RAW264.7 cells (ATCC TIB 71) were suspended in Dulbecco's modified Eagle's medium (Bio Whittaker, Code. 12-604F) containing 10% fetal calf serum at a concentration of 3×10^5 cells/ml. 500 μl of the suspension was added to each well of a 48-well microtiter plate and the plate was incubated at 37° C. for 6 hours in the presence of 5% CO2. 10 μl of a filter-sterilized agarooligosaccharide solution containing agarobiose, agarotetraose or agarohexaose prepared in Referential Example 1 at a concentration of 5 mM in water was added to the well. The plate was incubated for additional 0.5 or 5 hours. 10 μl of 50 μg/ml LPS aqueous solution was then added to the well. After the plate was incubated for additional 12 hours, the amount of prostaglandin E2 was measured. As control groups, a group to which LPS was not added and a group to which agarobiose, agarotetraose or agarohexaose was not added were provided.
After cultivation, the amount of prostaglandin E2 in the culture supernatant was measured using Prostaglandin E2 ELISA Kit (Neogen, Code. 404110). All of the measurements were carried out in triplicate.

[3] = test system: α-glucosidase; test: α-glucosidase inhibition with p-nitrophenyl-α-D-glucopyranoside; type: biochemical, S. cerevisiae
Method: (1) An α-glucosidase activity was measured by allowing α-glucosidase to act on p-nitrophenyl-α-D-glucopyranoside (a chromogenic substrate) and calorimetrically quantifying 4-nitrophenol released by hydrolysis.
10 μl of α-glucosidase solution [40 mU/ml, derived from S. cerevisiae, Sigma, dissolved in 10 mM phosphate buffer (pH 7.2 at 37° C.)] and 10 μl of a solution containing a test sample dissolved in 10 mM phosphate buffer (pH 7.2 at 37° C.) were mixed. 80 μl of a 1.5 mg/ml substrate solution [Sigma, dissolved in 10 mM phosphate buffer (pH 7.2 at 37° C.)] was added thereto to initiate the reaction. After reacting at 37° C. for 40 minutes, the absorbance at 410 nm was measured using Shimadzu uv2200. The remaining activity therein was calculated defining the activity observed without the addition of test sample as 100%.
Agarobiose, agarotetraose, agarohexaose and agarooctaose used as test samples were those prepared in Referential Example 1. Commercially available products of anhydrogalactose (Funakoshi), neoagarobiose (Sigma), neoagarotetraose (Funakoshi) and neoagarohexaose (Funakoshi) were used.

[4] = test system: RAW264.7 cells; test: NO production induced by LPS and IFN-γ in RAW264.7 cells (NO2− in medium, Griess); type: cell-based; conditions: 10 μl of 5 mM oligosaccharide solution per 500 μl well, added 0.5 or 5 hours before LPS and IFN-γ; 12 hours; FIG. 1
Method: RAW264.7 cells (ATCC TIB 71) were suspended in Dulbecco's modified Eagle's medium (Bio Whittaker, 12-917F) without Phenol Red containing 10% fetal calf serum and 2 mM L-glutamine (Life Technologies Oriental, Code. 25030-149) at a concentration of 3×10^5 cells/ml. 500 μl of the suspension was added to each well of a 48-well microtiter plate and the plate was incubated at 37° C. for 6 hours in the presence of 5% CO2. 10 μl of a filter-sterilized oligosaccharide solution containing agarobiose, agarotetraose or agarohexaose prepared in Referential Example 1 at a concentration of 5 mM in water was added to the well. The plate was incubated for additional 0.5 or 5 hours. 10 μl of aqueous solution containing lipopolysaccharide (LPS, Sigma, Code. L-2012) at a concentration of 5 μg/ml and interferon-γ (IFN-γ, sold by Cosmobio, Code. GZM-MG-IFN) at a concentration of 2000 U/ml was added to the well. The plate was incubated for additional 12 hours. The concentration of […] resulting from oxidation of NO in the medium was then measured.
As control groups, a group to which LPS or IFN-γ was not added and a group to which agarobiose, agarotetraose or agarohexaose was not added were provided.
After cultivation, 100 μl of 4% Griess' reagent (Sigma, Code. G4410) was added to 100 μl of the culture supernatant, and the mixture was allowed to stand for 15 minutes at room temperature. The absorbance at 490 nm was then measured. NO2^− concentration in the medium was calculated with reference to a calibration curve prepared by using NaNO2 dissolved in the same medium at a predetermined concentration. All of the measurements were carried out in triplicate.

Compound | TPA-induced generation of intracellular peroxides [1] | prostaglandin E2 production induced by LPS [2] | Activity of inhibiting α-glucosidase (% remaining activity) ([3]; 5 μM) [%] | Activity of inhibiting α-glucosidase (% remaining activity) ([3]; 50 μM) [%] | Activity of inhibiting α-glucosidase (% remaining activity) ([3]; 500 μM) [%] | Activity of inhibiting α-glucosidase (% remaining activity) ([3]; 1000 μM) [%] | Activity of inhibiting α-glucosidase (% remaining activity) ([3]; 5000 μM) [%] | NO production induced by LPS and IFN-γ [4]
OCC1OC(OC2C3COC2C(O)C(OC2C(O)C(CO)OC(OC4C5COC4C(O)C(O)O5)C2O)O3)C(O)C(O)C1O (stereo not drawn) [Agarotetraose, agarotetraose] | Slight inhibition | inhibited the prostaglandin E2 production induced by LPS | 100 | 97 | 75 | 32 | 20 | inhibited NO production induced by LPS and IFN-γ
OCC1OC(OC2C3COC2C(O)C(OC2C(O)C(CO)OC(OC4C5COC4C(O)C(OC4C(O)C(CO)OC(OC6C7COC6C(O)C(O)O7)C4O)O5)C2O)O3)C(O)C(O)C1O (stereo not drawn) [Agarohexaose, agarohexaose] | inhibition of TPA-induced generation of intracellular peroxides was observed | inhibited the prostaglandin E2 production induced by LPS | 91 | 91 | 47 | 35 | 7 | inhibited NO production induced by LPS and IFN-γ
OC[C@H]1O[C@@H](O[C@H]2[C@H]3OC[C@@H]2OC(O)[C@H]3O)[C@H](O)[C@@H](O)[C@H]1O (mixture of isomers) [Agarobiose, agarobiose] | Slight inhibition | inhibited the prostaglandin E2 production induced by LPS | 100 | 100 | 100 | 100 | 100 | inhibited NO production induced by LPS and IFN-γ
